From article PMC9182086, “Identification of New Non-BBB Permeable Tryptophan Hydroxylase Inhibitors for Treating Obesity and Fatty Liver Disease” (Molecules, 2022) come the findings set out here.

A short description of data set [1]: Pharmacokinetic study in rats (iv and oral). The following applies: SD, rat, plasma, 5 mg/kg. It is filed as in vivo, male SD rats. As for the experimental part: The pharmacokinetic study of 18i was performed using eight-week-old male SD rats (Orient Bio Inc., Seongnam, Korea). 18i and its prodrug 21 (5 mg/kg, 2 mL/kg) were administered via intravenous and oral routes. Blood samples were collected at 0.033, 0.16, 0.5, 1, 2, 4, 6, 8, and 24 h for intravenous injection at 0.15, 0.5, 1, 2, 4, 6, 8, and 24 h for oral dosing after drug administration, and then immediately centrifuged at 10,000× g for 3 min. The plasma concentrations of 18i were determined by LC-MS/MS. The plasma concentration-time profiles and pharmacokientic parameters were analyzed by a non-compartmental method using the nonlinear least-squares regression program WinNonlin 5.3 (Pharsight, Mountain View, CA, USA).
The LC-MS/MS analysis was performed on an Agilent 1200 series (Agilent Technologies, Santa Clara, CA, USA) with an API 4000 linear ion trap triple quadruple mass spectrometer (AB Sciex, CA, USA). The chromatographic separation of the drug was carried out using a kinetex column (100 × 2.1 mm, 3 μm, Phenomenex, CA USA) with a SecurityGuard C18 guard column (4 mm × 2.0 mm i.d., Phenomenex). The flow rate was 300 µL/min with a mobile phase consisting of 0.1% formic acid in water (eluent A) and 0.1% formic acid in acetonitrile (eluent B) by linear gradient condition as follows: starting with 0 to 0.3 min, B: 5%; 0.3 to 2.5 min, B: 5 → 95%; 2.5 to 2.9 min, B: 95%; 2.9 to 3.0 min, B: 95 → 5%, and then re-equilibrated to initial conditions until 3 min. The total run time was 6 min and the injection volume of 5 μL.

Data set [2] concerns the target T1, CYP2D6 (Homo sapiens, UniProt P10635).
T1 construct: purchased Promega Corp. V9890
Briefly: CYP inhibition assay (P450-Glo) CYP2D6. The class given is in vitro ADME. The settings on record: P450-Glo CYP2D6 Screening System (CYP enzyme), read-out: CYP inhibition 2D6. The source says: Five major screening systems: P450-Glo CYP1A2 Screening System (Catalog# V9770), P450-Glo CYP2C9 Screening System (Catalog# V9790), P450-Glo CYP2C19 (Catalog# V9880), P450-Glo CYP 2D6 (Catalog# V9890), and P450-Glo CYP3A4 (Catalog# V9920) were attained from Promega Corp. (Madison, WI). α-naphthoflavone, sulfaphenazole, amitriptyline, quinidine, and ketoconazole were identified as positive control inhibitors for CYP1A2, CYP2C9, CYP2C19, CYP2D6, and CYP3A4, respectively. The CYP enzyme and substrate were combined in a potassium phosphate (KPO4) buffer and the reaction is initiated by adding an NADPH regenerating system. The volume of the mixture (12.5 μL in a 96-well plate) was combined with an equal volume of test compound solution and positive control inhibitor (12.5 μL added to make the volume 25 μL). The reaction of the NADPH regeneration system was initiated by adding a 2× concentration of NADPH solution. Then an equal volume of luciferin detection reagent was added. The plates were incubated at room temperature for 20 min and the luminescence signal was measured by a microplate reader device.

A short description of data set [3]: Liver microsomal stability (rat). It is filed as in vitro ADME. Here is the method: For the liver microsomal activity, test compounds were incubated with rat and mouse’s liver microsomes, respectively, at a final concentration of 1 µM, in the presence of an NADPH regeneration system in 0.1 M potassium phosphate buffer (pH 7.4) for […] at 37 °C in shaking incubator. The microsomal reaction was terminated by adding four volumes of ice-cold acetonitrile and then centrifuged at 4000 rpm for 20 min. The supernatant was collected and analyzed by a LC-MS/MS system. The percentage of the parent compound remaining was calculated by comparing peak areas.
(Liver microsomes are a subcellular fraction often used to study metabolism.)

T1 sequence (P10635 whole entry): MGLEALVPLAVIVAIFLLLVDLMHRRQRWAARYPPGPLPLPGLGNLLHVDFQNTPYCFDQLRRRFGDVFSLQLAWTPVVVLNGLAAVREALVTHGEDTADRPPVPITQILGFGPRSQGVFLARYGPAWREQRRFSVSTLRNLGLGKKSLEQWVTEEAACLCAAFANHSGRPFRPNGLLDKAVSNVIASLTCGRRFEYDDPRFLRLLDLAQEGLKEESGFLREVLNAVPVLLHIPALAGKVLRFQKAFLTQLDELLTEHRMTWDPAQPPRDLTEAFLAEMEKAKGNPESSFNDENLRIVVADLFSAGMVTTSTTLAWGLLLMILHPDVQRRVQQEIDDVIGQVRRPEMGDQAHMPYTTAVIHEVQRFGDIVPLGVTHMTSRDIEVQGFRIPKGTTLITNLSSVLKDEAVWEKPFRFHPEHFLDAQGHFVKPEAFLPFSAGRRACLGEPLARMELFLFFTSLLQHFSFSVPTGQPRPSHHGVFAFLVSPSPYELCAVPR

For `Cc1ccn(-c2cc(Cl)ccc2[C@@H](Oc2ncnc3c(-c4ccc(C[C@H](N)C(=O)O)cc4)csc23)C(F)(F)F)n1.Cl` [Compound 18i, (S)-2-amino-3-(4-(4-((R)-1-(4-chloro-2-(3-methyl-1H-pyrazol-1-yl)phenyl)-2,2,2-trifluoroethoxy)thieno[3,2-d]pyrimidin-7-yl)phenyl)propanoic acid hydrochloride], in data set [1] (male rats, iv, 5 mpk), the AUC(0-inf) (usually total exposure, with the tail of the curve extrapolated) is 1.22 µg·h/mL; the AUC(0-t) (as a rule, the area under the concentration-time curve up to a stated or last time point) amounted to 1.21 µg·h/mL; the clearance came to 4.09 L/h/kg; the half-life (commonly how long it takes for the measured level to halve) was 1.85 h. For the same compound, the Vd in data set [1] (male rats, iv, 5 mpk, read-out: Vss) turned out to be 2.16 L/kg. In addition, the AUC – broadly, concentration integrated over time – in data set [1] (male, intravenous, rats, read-out: AUC (text, kind not stated)) came out at 1.2 µg·h/mL. The inhibition (in general, the relative decrease from the control value, in per cent) at 10 µM in data set [2] is 24.6%. The “Liver microsomal stability (rat), parent remained” value in data set [3] (after 30 min incubation, 1 µM) was 99% parent remained after 30 min incubation. The “Liver microsomal stability, remained” value in data set [3] (after incubation for 30 min, species not given) came to 99%.
